This passage reports IC50 results from patent US6051712A, “Piperidine derivatives having renin inhibiting activity” (Hoffmann-La Roche Inc., priority 1995, dated 2000).

Counter-ions that a name gives are not always drawn.

The first experiment addresses T1, human renin (Homo sapiens, UniProt P00797).
T1 sequence (P00797 67-406): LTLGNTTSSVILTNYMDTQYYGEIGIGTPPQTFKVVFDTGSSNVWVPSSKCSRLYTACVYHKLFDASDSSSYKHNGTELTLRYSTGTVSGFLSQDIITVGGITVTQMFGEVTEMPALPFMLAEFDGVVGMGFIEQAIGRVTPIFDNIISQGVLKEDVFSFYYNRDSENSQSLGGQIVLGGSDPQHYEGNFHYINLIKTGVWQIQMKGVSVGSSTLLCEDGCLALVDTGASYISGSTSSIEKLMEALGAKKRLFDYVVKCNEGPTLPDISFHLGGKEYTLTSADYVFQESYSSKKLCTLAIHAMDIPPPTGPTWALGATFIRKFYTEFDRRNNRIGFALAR
As to the kind of experiment: In vitro test with pure human renin (angiotensin I production from human tetradecapeptide renin substrate, measured by RIA). The format is biochemical.
Conditions: not given
On the procedure:
In vitro test with pure human renin
The test is carried out in Eppendorf test tubes. The incubation mixture consists of (1) 100 μl of human renin in buffer A (0.1M sodium phosphate solution, pH 7.4, containing 0.1% bovine serum albumin, 0.1% sodium azide and 1 mM ethylenediaminetetraacetic acid), sufficient for a renin activity of 2-3 ng of angiotensin l/ml/hr.; (2) 145 μl of buffer A: (3) 30 μl of 10 mM human tetradecapeptide renin substrate (hTD) in 10 mM hydrochloric acid: (4) […] of dimethyl sulphoxide with or without inhibitor and (5) 10 μl of a 0.03 molar solution of hydroxyquinoline sulphate in water.
The samples are incubated for three hours at 37° C. and, respectively, 4° C. in triplicate. 2×100 μl samples per test tube are used in order to measure the production of angiotensin I via RIA (standard radioimmunoassay; clinical assay solid phase kit). […] The production of angiotensin I is determined by the difference between the test at 37° C, and that at 4° C.
The following controls are carried out:
(a) Incubation of hTD samples without renin and without inhibitor at 37° C. and 4° C. The difference between these two values gives the base value of the angiotensin I production.
(b) Incubation of hTD samples with renin, but without inhibitor at 37° C. and 4° C. The difference between these values gives the maximum value of the angiotensin I production.
In each sample the base value of the angiotensin I production is subtracted from the angiotensin I production which is determined. The difference between the maximum value and the base value gives the value of the maximum substrate hydrolysis (=100%) by renin.
The IC50 values are determined from a linear regression curve from a logit-log plot.
Take `COc1ccccc1COCCCOc1ccc([C@H]2CCNC[C@@H]2OCc2cc(OC)c3ccccc3c2OC)cc1` (relative stereo) [UU]: the IC50 turned out to be 0.1 nM.

The same experiment, now with this note: pure human renin, pH 7.4, three hours at 37° C. (less 4° C.), human tetradecapeptide substrate, angiotensin I by RIA; read-out: IC50 values (concentration of the inhibitor at which the enzymatic activity is inhibited by 50%).
For `COc1cc(CO[C@H]2CNC[C@@H](O)[C@@H]2c2ccc(OCCCOCc3ccccc3)cc2)c(OC)c2ccccc12` (racemic) [S, (3RS,4SR,5SR)-4-[4-(3-benzyloxy-propoxy)-phenyl]-3-(1,4-dimethoxy-naphthalen-2-ylmethoxy)-piperidin-5-ol], the IC50 was determined as 2 nM. Still for that read-out and setting: then `OCCCCO[C@@H]1CNC[C@H](OCc2ccc3ccccc3c2)[C@H]1c1ccc(OCCCOCc2ccccc2)cc1` (racemic) [V, 4-[(3RS,4SR,5SR)-4-[4-(3-benzyloxy-propoxy)-phenyl]-3-(naphthalen-2-ylmethoxy)-piperidin-5-yloxy]-butan-1-ol], with 2 nM. With `OCCCO[C@@H]1CNC[C@H](OCc2ccc3ccccc3c2)[C@H]1c1ccc(OCCCOCc2ccccc2)cc1` (racemic) [W, 3-[(3RS,4SR,5SR)-4-[4-(3-benzyloxy-propoxy)-phenyl]-3-(naphthalen-2-ylmethoxy)-piperidin-5-yloxy]-propan-1-ol], the IC50 stood at 2 nM. In the case of `COc1ccccc1COCCCOc1ccc([C@H]2CCNC[C@@H]2OCc2ccc3ccc(=O)[nH]c3c2)cc1` (racemic) [WW, (3RS,4RS)-4-[4-[3-(2-methoxy-benzyloxy)-propoxy]-phenyl]-3-(2-oxo-1,2-dihydro-quinolin-7-ylmethoxy)-piperidine], the IC50 turned out to be 9 nM. On to `CN1CCN(CCO[C@@H]2CNC[C@H](OCc3ccc4ccccc4c3)[C@H]2c2ccc(OCCCOCc3ccccc3)cc2)CC1` (racemic) [X, 1-{2-[(3RS,4RS,5SR)-4-[4-(3-benzyloxy-propoxy)-phenyl]-3-(naphthalen-2-ylmethoxy)-piperidin-5-yloxy]-ethyl}-4-methyl-piperazine], for which the IC50 was found to be 3 nM. `COc1ccccc1COCCCOc1ccc([C@H]2CCNC[C@@H]2OCc2ccc3ccncc3c2)cc1` (racemic) [XX, (3RS,4RS)-3-(isoquinolin-7-ylmethoxy)-4-[4-[3-(2-methoxy-benzyloxy)-propoxy]-phenyl]-piperidine]: the IC50 is 0.8 nM.

Turning to `c1ccc(COCCCOc2ccc([C@@H]3[C@@H](OCc4ccc5ccccc5c4)CNC[C@H]3OCCN3CCOCC3)cc2)cc1` (racemic) [Y, 4-{2-[(3RS,4RS,5SR)-4-[4-(3-benzyloxy-propoxy)-phenyl]-3-(naphthalen-2-ylmethoxy)-piperidin-5-yloxy]-ethyl}-morpholine], the IC50 amounted to 3 nM.

Regarding `COc1ccccc1COCCCOc1ccc([C@H]2CCNC[C@@H]2OCc2ccc3c(c2)NCCC3)cc1` (racemic) [YY, (3RS,4RS)-4-[4-[3-(2-methoxy-benzyloxy)-propoxy]-phenyl]-3-(1,2,3,4-tetrahydro-quinolin-7-ylmethoxy)-piperidine], the IC50 amounted to 0.5 nM. On to `COc1ccc(CO[C@H]2CNC[C@@H](O)[C@@H]2c2ccc(OCCCOCc3ccccc3)cc2)cc1` (racemic) [Z, (3RS,4SR,5SR)-4-[4-(3-benzyloxy-propoxy)-phenyl]-3-(4-methoxy-benzyloxy)-piperidin-5-ol], for which the IC50 came out at 1 nM. As for `COc1ccccc1COCCCOc1ccc([C@H]2[C@H](O)CNC[C@@H]2OCc2cc(OC)c3ccccc3c2OC)cc1` (racemic) [ZZ, (3RS,4SR,5SR)-3-(1,4-dimethoxy-naphthalen-2-ylmethoxy)-4-[4-[3-(2-methoxy-benzyloxy)-propoxy]-phenyl]-piperidin-5-ol], the IC50 was determined as 0.03 nM.

In the case of `O=C(OCCOc1ccc([C@H]2CCNC[C@@H]2OCc2ccc3ccccc3c2)cc1)c1ccccc1Cl` (relative stereo) [B, (3RS,4RS)-2-[4-(3-napthalen-2-ylmethoxy-piperidin-4-yl)-phenoxy]-ethyl 2-chloro-benzoate hydrochloride], the IC50 turned out to be 26 nM. On the same count and under the same terms, to `c1ccc(COCCCOc2ccc([C@H]3[C@H](COCCN4CCOCC4)CNC[C@@H]3OCc3ccc4ccccc4c3)cc2)cc1` (relative stereo) [BB] belongs 3 nM; to `COC[C@@H]1CNC[C@H](OCc2ccc3ccccc3c2)[C@H]1c1ccc(OCCCOCc2ccccc2)cc1` (relative stereo) [CC], 2 nM. Take `CN1CCN(CCCNC(=O)OC[C@@H]2CNC[C@H](OCc3ccc4ccccc4c3)[C@H]2c2ccc(OCCCOCc3ccccc3)cc2)CC1` (relative stereo) [DD]: the IC50 came out at 1 nM.

Consider `c1ccc(COCCCOc2ccc([C@H]3[C@H](CSc4ccncc4)CNC[C@@H]3OCc3ccc4ccccc4c3)cc2)cc1` (relative stereo) [EE], for which the IC50 turned out to be 0.4 nM. The same measure, in the same setting: then `COc1cc(CO[C@H]2CNCC[C@@H]2c2cnc(OCCCCC3CCCCC3)nc2)c(OC)c2ccccc12` (relative stereo) [FF], with 0.6 nM. Take `COc1cc(CO[C@H]2CNCC[C@@H]2c2ccc(OCCCC3CCCCC3)nc2)c(OC)c2ccccc12` (relative stereo) [GG, (3'RS,4'RS)6-(3-Cyclohexyl-propoxy)-3(1,4-dimethoxy-naphthalen-2-ylmethox)-1',2',3',4',5',6hexahydro-[3,4']bipyridine]: the IC50 was 1 nM. On the same count and under the same terms, then `OC[C@@H]1CNC[C@H](OCc2ccc3ccccc3c2)[C@H]1c1ccc(OCCCOCc2ccccc2)cc1` (relative stereo) [HH, (3SR,4RS,5RS)[4[4(3-Benzyloxy-propoxy)-phenyl5-(naphthalen-2-ylmethoxy)-pperidin-3-ylmethanol hydrochloride], with 6 nM; and `CN(C)CCN(C)C[C@@H]1CNC[C@H](OCc2ccc3ccccc3c2)[C@H]1c1ccc(OCCCOCc2ccccc2)cc1` (relative stereo) [II], with 2 nM; and `CCN(CC)C[C@@H]1CNC[C@H](OCc2ccc3ccccc3c2)[C@H]1c1ccc(OCCCOCc2ccccc2)cc1` (relative stereo) [JJ], with 2 nM.

As to `COc1ccccc1OCCCOc1ccc([C@H]2CCNC[C@@H]2OCc2cc(OC)c3ccccc3c2OC)cc1` (relative stereo) [LL], the IC50 turned out to be 1 nM. On the same count and under the same terms, then `c1ccc(COCCCOc2ccc([C@H]3[C@H](Cn4cncn4)CNC[C@@H]3OCc3ccc4ccccc4c3)cc2)cc1` (relative stereo) [NN, (3RS,4RS,5SR)4-[4(3-Benzyloxy-propoxy)-phenyl3-(naphthalen-2-ylmethoxy)-5[1,2,4]triazol1-ylmethyl-piperidine hydrochloride], with 1 nM; and `O=C(Cc1ccc2ccccc2c1)[C@H]1CNCC[C@@H]1c1ccc(OCCCOCc2ccccc2)cc1` (relative stereo) [R, [(3RS,4SR)-4-[4-(3-benzyloxy-propoxy)-phenyl]-piperidin-3-yl]-2-naphthalen-2-yl-ethanone hydrochloride (1:1)], with 3 nM. As to `COc1ccccc1COCCCOc1ccc([C@H]2CCNC[C@@H]2OCc2cc(OC)c3ccccc3c2OC)cn1` (relative stereo) [TT], the IC50 stood at 0.5 nM.

Take `O=C1NCCN1C[C@@H]1CNC[C@H](OCc2ccc3ccccc3c2)[C@H]1c1ccc(OCCCOCc2ccccc2)cc1` (relative stereo) [VV]: the IC50 came to 2 nM. With `COc1ccc(CO[C@H]2CNC[C@@H](OCc3ccc(OC)cc3)[C@@H]2c2ccc(OCCCOCc3ccccc3)cc2)cc1` [AA, (3R,4s,5S)-4-[4-(3-benzyloxy-propoxy)-phenyl]-3,5-bis-(4-methoxy-benzyloxy)-piperidine], the IC50 was 1 nM.
